US4759880A, “Alkanoarachidonic acids” (Research Corporation, priority 1984, dated 1988)

Legend:
[1] = system: human gel-filtered platelet suspension; test: Inhibition of AA-induced platelet aggregation; format: cell-based; conditions: human gel-filtered platelet suspension containing 0.2% albumin
Source text: (§1) Biological studies to define the profiles of these compounds reveal interesting and selective properties including, in vitro inhibition of SRS-A biosynthesis, 5-lipoxygenase inhibition, phospholiphase A2 inhibition and antithrombotic activity.

5-lipoxygenase = molecular target: T1, 5-lipoxygenase (Rattus norvegicus, UniProt P12527); test: Inhibition of conversion of 14C-AA to 14C-5-HETE in supernatant from RBL-1 cells; format: biochemical
T1 construct: super natant from RBL-1 cells; endogenous in cells; host or cells: RBL-1 cells (supernatant)
T1 sequence (P12527 1-673): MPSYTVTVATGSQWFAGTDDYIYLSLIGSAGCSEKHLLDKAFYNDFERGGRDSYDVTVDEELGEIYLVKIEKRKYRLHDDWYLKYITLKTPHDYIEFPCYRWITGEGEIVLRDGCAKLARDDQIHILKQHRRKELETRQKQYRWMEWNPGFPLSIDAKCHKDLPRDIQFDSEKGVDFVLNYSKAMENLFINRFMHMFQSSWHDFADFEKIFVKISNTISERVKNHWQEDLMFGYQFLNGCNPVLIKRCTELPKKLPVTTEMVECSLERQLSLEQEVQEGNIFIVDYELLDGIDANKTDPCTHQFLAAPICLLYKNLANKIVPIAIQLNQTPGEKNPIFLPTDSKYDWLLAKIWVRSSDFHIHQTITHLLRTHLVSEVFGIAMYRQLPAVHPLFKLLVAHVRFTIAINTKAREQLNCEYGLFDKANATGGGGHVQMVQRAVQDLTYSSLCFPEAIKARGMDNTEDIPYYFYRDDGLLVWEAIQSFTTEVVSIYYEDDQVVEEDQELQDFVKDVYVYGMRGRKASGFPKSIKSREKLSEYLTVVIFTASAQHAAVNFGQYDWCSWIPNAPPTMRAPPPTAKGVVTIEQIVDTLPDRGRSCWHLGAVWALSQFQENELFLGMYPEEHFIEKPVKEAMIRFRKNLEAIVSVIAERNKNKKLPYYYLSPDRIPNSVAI
Source text: as §1

SMILES: CCCCC/C=C\C/C=C\C/C=C\C1(/C=C\CCCC(=O)O)CC1 [compound 1]
- inhibition at 80 µM [1]: 50%
- inhibition at 100 µM (5-lipoxygenase): 86%
